Assays:
D. melanogaster adults = test: Vapor avoidance assay (choice between AITC tube and DMSO tube); type: in vivo, Drosophila melanogaster; settings: dTrpA1 loss-of-function mutants, P<0.0001
Protocol: Vapor avoidance assay: One to three day-old flies were collected, knocked out by CO2, and kept on a fresh food at least 24 hrs before use. Choice apparatus was as previously described (3). ˜200 mM AITC was prepared daily by diluting 1 part of 99% AITC (Sigma) in 49 parts of DMSO. 1 microliter of diluted AITC was placed on the tip of 16-gauge needle (plugged by bending), inserted in bottom of a capped 14-ml polypropylene tube and allowed to diffuse for 2 min prior to use. 1 microliter of DMSO alone was placed on a needle tip inserted into the other 14-ml tube. During diffusion period, flies were transferred to the apparatus held within the fly elevator. After diffusion period, AITC tube was uncapped and inserted one opening of the choice chamber, other opening contained vehicle only tube. […] AITC and vehicle only sides were alternated to offset any bias caused by possible asymmetric condition. Avoidance index was calculated by subtracting the fraction of flies in AITC tube from fraction in vehicle alone tube.

D. melanogaster flies [1] = test: Proboscis extension response (PER) assay, solution contact with labellum; type: in vivo, Drosophila melanogaster
Text: Proboscis extension response (PER) assay: As reactive electrophiles are commonly encountered as defensive agents present in food sources, we also examined AITC sensing in the context of fly feeding. Flies aged two to seven days were starved on wet Kim wipes overnight, knocked out on ice, and glued (Elmer's glue) by their wings on a glass slide. Flies recovered in a humidified chamber at least for 2 hrs at room temperature prior to assay. At the beginning of PER assay, the fly was satiated with water. […] When the proboscis was extended and maintained the contact for 2-3 sec with the presented food, it was scored as 1. If the contact is only brief or proboscis stuttered on the tastant, 0.5 was given as the score. When the proboscis never made contact within 5 sec, 0 was given. Each fly was offered five times per experiment, and between offerings water was given to satiation. As AITC was always accepted on first offering, frequency of PER was calculated as a fraction obtained from the […] offerings (sum of four scores divided by 4). For leg only PER assays, the procedures are same as above except that the flies tested were not allowed to contact with the offered food with proboscis, with either 12% sucrose or a mixture of 2 mM AITC/12% sucrose was offered ten times.

D. melanogaster flies [2] = test: Leg only PER assay; type: in vivo, Drosophila melanogaster; settings: 2 mM AITC/12% sucrose
Text: Proboscis extension response (PER) assay: As reactive electrophiles are commonly encountered as defensive agents present in food sources, we also examined AITC sensing in the context of fly feeding. Flies aged two to seven days were starved on wet Kim wipes overnight, knocked out on ice, and glued (Elmer's glue) by their wings on a glass slide. Flies recovered in a humidified chamber at least for 2 hrs at room temperature prior to assay. At the beginning of PER assay, the fly was satiated with water. Next, solution containing tastants was presented to the fly as a liquid ball on a pipette tip, touching the forelegs only. When the proboscis was extended and maintained the contact for 2-3 sec with the presented food, it was scored as 1. If the contact is only brief or proboscis stuttered on the tastant, 0.5 was given as the score. When the proboscis never made contact within 5 sec, 0 was given. Each fly was offered five times per experiment, and between offerings water was given to satiation. As AITC was always accepted on first offering, frequency of PER was calculated as a fraction obtained from the […] offerings (sum of four scores divided by 4). […]

dTRPA1 [3] = biological target: T1, dTRPA1 (Drosophila melanogaster, UniProt Q7Z020); test: Agonist-evoked dTRPA1 currents, two-electrode voltage clamping on Xenopus laevis oocytes; type: cell-based; settings: for activation of wild-type dTRPA1 channel currents: 100 μM, applied 60-80 sec, currents at -60 and +60 mV
T1 sequence (Q7Z020 1-1197): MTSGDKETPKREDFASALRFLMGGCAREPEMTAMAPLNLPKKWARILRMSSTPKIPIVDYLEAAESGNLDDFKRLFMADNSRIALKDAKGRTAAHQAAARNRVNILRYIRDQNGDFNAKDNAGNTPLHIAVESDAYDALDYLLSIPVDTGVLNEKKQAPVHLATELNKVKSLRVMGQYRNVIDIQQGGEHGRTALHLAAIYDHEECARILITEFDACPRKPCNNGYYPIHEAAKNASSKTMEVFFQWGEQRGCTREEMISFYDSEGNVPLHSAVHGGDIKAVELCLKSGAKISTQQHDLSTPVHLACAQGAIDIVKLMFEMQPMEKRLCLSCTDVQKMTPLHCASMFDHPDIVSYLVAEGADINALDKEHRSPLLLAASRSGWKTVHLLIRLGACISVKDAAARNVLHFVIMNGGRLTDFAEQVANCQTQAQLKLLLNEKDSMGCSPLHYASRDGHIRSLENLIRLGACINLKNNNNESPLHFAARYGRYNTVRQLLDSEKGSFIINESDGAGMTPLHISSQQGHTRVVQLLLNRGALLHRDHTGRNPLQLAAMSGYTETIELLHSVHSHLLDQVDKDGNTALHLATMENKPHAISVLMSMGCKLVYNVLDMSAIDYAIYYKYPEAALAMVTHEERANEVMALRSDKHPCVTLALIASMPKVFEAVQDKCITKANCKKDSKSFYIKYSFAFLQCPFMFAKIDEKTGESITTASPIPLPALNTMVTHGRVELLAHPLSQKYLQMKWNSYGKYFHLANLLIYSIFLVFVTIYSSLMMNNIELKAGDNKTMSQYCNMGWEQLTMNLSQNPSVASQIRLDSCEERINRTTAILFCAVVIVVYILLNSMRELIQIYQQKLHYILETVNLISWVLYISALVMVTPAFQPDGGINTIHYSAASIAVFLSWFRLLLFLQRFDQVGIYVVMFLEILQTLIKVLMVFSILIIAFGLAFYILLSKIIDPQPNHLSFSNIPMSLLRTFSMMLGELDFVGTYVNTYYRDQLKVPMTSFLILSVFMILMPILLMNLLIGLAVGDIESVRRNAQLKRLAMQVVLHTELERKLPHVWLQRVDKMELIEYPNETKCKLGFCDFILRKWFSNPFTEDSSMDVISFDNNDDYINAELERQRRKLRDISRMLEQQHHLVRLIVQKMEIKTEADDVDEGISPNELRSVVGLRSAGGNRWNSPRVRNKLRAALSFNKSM
Protocol: (§1) Two-electrode voltage clamping on Xenopus laevis oocytes: Agonist-evoked dTRPA1 currents were recorded as previously described (52), with the following modifications. Agonists of interest were added to the oocyte perfusion buffer (96 mM NaCl, 1 mM MgCl2, 4 mM KCl, and 5 mM HEPES, pH 7.6). Voltage was initially held at −60 mV, and each 300-ms voltage ramp (−60 mV to 60 mV) per sec was applied to dTRPA1- or AgTRPA1-expressing oocytes during perfusion of agonist-containing buffer. Typical resting membrane potentials of oocytes used were between −25 and −60 mV.

agTRPA1 [4] = test: Agonist-evoked agTRPA1 currents, two-electrode voltage clamping on Xenopus laevis oocytes; type: cell-based, Anopheles gambiae; settings: 100 μM
Protocol: as §1

dTRPA1-2C = test: AITC-evoked currents of dTRPA1-2C mutant channel in oocytes; type: cell-based, Drosophila melanogaster; settings: 0.1 and 0.5 mM AITC normalized to 1.0 mM, -60 mV
Protocol: as §1
Substitutions of cysteine/lysine residues in dTrpA1 were made by swapping a region of wild type cDNA sequence including codons of cysteine or lysine with mutated cassettes. A pair of mutually complemetary oligonucleotide primers with a desired mutation were prepared, and each of them was paired with upstream or downstream primers for the first two PCR reactions. The resulting two PCR fragments overlap in the mutant primer-annealing region that contains the replaced codons, and served as template for the second PCR reaction amplified only with the upstream and down stream primers. The upstream and down stream primers were designed to be just outside of specific restriction endonuclease target sites that were used to clone the second PCR products back in the wild type dTrpA1 cDNA background sequence. […]

flies = test: Ingestion of AITC-laden food over a 60 minute period; type: in vivo, Drosophila; settings: well before the end of the 60 minute assay
Drosophila melanogaster = settings: cited from earlier work
dTRPA1 [5] = biological target: T1, dTRPA1; test: Warmth-evoked currents in dTRPA1-expressing Xenopus laevis oocytes (two electrode voltage clamp); type: cell-based; settings: 50 micromolar Ruthenium Red, -60 mV
Protocol: (§2) Oocyte-positive Xenopus laevis females were obtained from Nasco (Ft. Atkinson, Wis.), and maintained at ˜19° C. with 12 h/12 h dark/light cycles. Ovaries were surgically isolated, and treated with 1.5 mg/ml of collagenase type II (Worthington, Lakewood, N.J.) for 90 min, and individual oocytes were defolliculated with a pair of forceps. cRNA was transcribed by mMessage mMachine T3 kit (Ambion, Austin, Tex.) from each cDNA construct, and 50 nl aliquot per oocyte was injected using an automatic Drummond microinjector. (agTRPA1 sequence deposited as Genbank #108 1610.) Membrane potential was maintained at −60 mV by two electrode voltage clamping (TEVC) during warm-activated current recording. Resistance of pulled glass capillary electrodes filled with 3 M KCl was between 0.5 and 1.5 MΩ. Typical resting membrane potentials of oocytes used for current recording were between −25 and -60 mV. Current was recorded at 2 kHz and filtered to 1 kHz with the output filter of the amplifier (OC-725B, Warner instruments, Hamden, Conn.). […] Each voltage step lasted 100 ms following 10 ms holding at −60 mV, and the recorded current in the last 40 ms was averaged to determine the current amplitude at a given voltage.

agTRPA1 [6] = test: Warmth-evoked currents in agTRPA1-expressing Xenopus laevis oocytes (two electrode voltage clamp); type: cell-based, Anopheles gambiae; settings: 50 micromolar Ruthenium Red, -60 mV
Protocol: as §2

[7] = tested on: motor neurons expressing dTRPA1; test: Larval neuromuscular junction electrophysiology (EJPs in muscle 6); type: cell-based, Drosophila melanogaster
Text: Larval neuromuscular junction electrophysiology: dTRPA1 was expressed in larval motor neurons using OK371-GAL4, a driver specific for glutamatergic neurons (Aberle et al., 2006) as described (61). In all preparations, the ventral ganglion was dissected away, leaving only motor axons and terminals. Larval muscle 6 (m6) was impaled with a sharp electrode (10-20 MO) containing 3M KCl. Resting membrane potentials were typically between −40 and −50 mV. Saline was perfused over the preparation, then increasing concentrations of cinnemaldehyde applied using a custom built gravity perfusion system. EJP frequency was measured-30 sec after application of each concentration using analysis scripts in Spike 2 (Cambridge Electronic Design, Cambridge, UK).

C=CCN=C=S [AITC, allyl isothiocyanate]
AITC vapor avoidance compared to control (D. melanogaster adults): significantly reduced AITC avoidance | PER upon the first offering (D. melanogaster flies [1]; 12% sucrose containing 2 mM AITC, labellum): All flies also exhibited a PER | PER triggered by the four subsequent offerings (D. melanogaster flies [1]; control flies, 12% sucrose containing 2 mM AITC, labellum (sucrose alone 95%)): 33% | PER in response to multiple offerings (D. melanogaster flies [1]; dTrpA1 mutants, sucrose containing AITC): no reduction in PER | effect on PER elicited by contact of 12% sucrose solution with the legs (D. melanogaster flies [2]): no detectable effects | activation of wild-type dTRPA1 channel currents (dTRPA1 [3]): robustly activated | activation of agTRPA1 channel currents (agTRPA1 [4]): robust responses | AITC sensitivity of dTRPA1-2C compared to wild type dTRPA1 (dTRPA1-2C): significantly decreased AITC sensitivity | incapacitation of flies on exposure (flies): incapacitated all flies | toxicity and mutagenicity to the fruit fly (Drosophila melanogaster): toxic and mutagenic

N.N.N.N.N.N.N.N.N.N.N.N.N.N.[Cl-].[Cl-].[Cl-].[Cl-].[Cl-].[Cl-].[O-2].[O-2].[Ru+3].[Ru+3].[Ru+4] [Ruthenium Red, ruthenium red]
inhibition of warmth-activated dTRPA1 currents (dTRPA1 [5]): inhibited | inhibition of warmth-activated agTRPA1 currents (agTRPA1 [6]): inhibited | inhibition of electrophile-evoked dTRPA1 currents (dTRPA1 [3]; 100 μM RR): inhibited

C=CC=O [acrolein]
activation of wild-type dTRPA1 channel currents (dTRPA1 [3]): robustly activated | toxicity and mutagenicity to the fruit fly (Drosophila melanogaster): toxic and mutagenic

Cn1c(=O)c2c(ncn2C)n(C)c1=O [caffeine]
inhibition of the PER, dTrpA1 mutants versus controls (D. melanogaster flies [1]; caffeine-mediated): indistinguishable

O=CC=Cc1ccccc1 [cinnamaldehyde]
activation of wild-type dTRPA1 channel currents (dTRPA1 [3]): robustly activated | response of control motor neurons ([7]; genetic controls without dTRPA1): unresponsive | activation of motor neurons expressing dTRPA1 (EJPs in target muscles) ([7]; ok371-Gal4 driven dTRPA1, 3rd instar larvae): robustly activated

Reference: patent US20110151018A1, “METHODS OF INSECT CONTROL” (BRANDEIS UNIVERSITY, priority 2008, published 2011)
